Reference: patent US20140155609A9, “QUINOLINE DERIVATIVE COMPOUND, METHOD FOR PREPARING SAME, AND PHARMACEUTICAL COMPOSITION CONTAINING SAME” (Dong-A ST Co., Ltd., priority 2010, published 2014)

Assays:
normal rat = test: Gastric emptying effect on normal rat; format: in vivo, Sprague-Dawley rats
Experimental: Gastric emptying activity of the compounds of the present invention was examined in the following experiment.
Sprague-Dawley rats with an age of 6 weeks were divided into groups according to weight, and acclimated for one week at a temperature of 22˜24° C. and a humidity of 60-80% while a standard diet and water were provided. Thereafter, they were starved for 24 hrs before an experiment while water was provided. From 3 hrs before the experiment, no more water was provided. A 3% hydroxy propyl methyl cellulose solution containing the compound of Example in an amount of 10 μg/kg was orally administered at a dose of 1 mL to each rat.
After 45 min, a semi-solid test meal (0.05% phenol red solution containing 1.5% MC), prepared by mashing feeds in water, was orally administered in an amount of 2 mL to each rat. After 35 min, the SD rats were killed, and the stomach was excised, and weighed carefully lest the gut content was leaked. Subsequently, the stomach was washed with distilled water to remove the gut content, dried, and weighed again, in order to calculate the weight of the semi-solid test meal left in the gut. In Table 4, the control was orally administered with 1 mL of 3% […].
Gastric Emptying(%)=[1−(weight of semi-solid test meal left in gut/weight of semi-solid test meal at 0-time)]×100 [Equation 4] […]

human 5-HT1A receptor = molecular target: T1, human 5-HT1A receptor (Homo sapiens, UniProt P08908); test: Assay for affinity for serotonin-1A receptor (3H 8-OH-DPAT competitive binding); settings: 10 μM compound; 1.5 nM 3[H] 8-OH-DPAT; CHO cells transfected with human 5-HT1A receptor; mean of two experiments
T1 construct: expressed in transfected cells; host or cells: CHO (Chinese hamster ovary) cells
T1 sequence (P08908 1-422): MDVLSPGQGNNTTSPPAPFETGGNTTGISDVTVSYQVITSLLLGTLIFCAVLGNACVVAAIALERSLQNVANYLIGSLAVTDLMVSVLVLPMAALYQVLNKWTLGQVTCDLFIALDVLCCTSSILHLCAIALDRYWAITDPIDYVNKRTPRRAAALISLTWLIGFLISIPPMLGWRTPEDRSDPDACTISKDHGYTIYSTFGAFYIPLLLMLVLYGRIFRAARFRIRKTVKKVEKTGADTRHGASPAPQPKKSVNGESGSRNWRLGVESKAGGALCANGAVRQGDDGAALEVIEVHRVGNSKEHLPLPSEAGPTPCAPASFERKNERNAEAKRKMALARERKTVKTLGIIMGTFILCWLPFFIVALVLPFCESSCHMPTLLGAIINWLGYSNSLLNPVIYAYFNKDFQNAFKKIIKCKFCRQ
Experimental: Compounds of the present invention were examined for affinity for the serotonin-1A receptor which can increase gastric accommodation in response to an agonist.
In tris-HCl buffer (50 mM Tris-HCl, pH 7.4, 120 mM NaCl, 5 mM KCl, 2 mM CaCl2, 1 mM MgCl2), 150 μg of Chinese hamster ovary (CHO) cells transfected with a human […] 5-HT1A receptor were incubated at 37° C. for 1.5 hrs with 1.5 nM of ^3[H] 8-OH-DPAT and 10 μM of the compound of interest of Example. After completion of the incubation, the incubation mixture was filtered through Whatman GF/B filter (unifilter-96, Lot: 6005177, PerkinElmer) to separate ligand-bound receptors. These bound receptors were washed three times with 5 mL of a Tris-HCl buffer. Then, 10 mL of a scintillation cocktail (Lot: 03999, Fluka) was added, and reacted for 16 hrs or longer with to measure radiation activity using a beta-counter (Packcard) in order to calculate the quantity of ^3[H] 8-OH-DPAT bound to the receptor.
Meanwhile, 10 μM of metergoline was also incubated in the presence of 1.5 nM of ^3[H] 8-OH-DPAT to determine a nonspecific binding value. The experiment was independently carried out twice, and receptor affinity was calculated using the following Equation 2. […]

[1] = molecular target: T2, human dopamine D2 receptor (Homo sapiens, UniProt P14416); test: Assay for affinity for dopamine receptor (3H-spiperone competitive binding); settings: 10 μM compound; 0.16 nM tritium spiperone; CHO cells transfected with human dopamine D2; mean of two experiments
T2 construct: expressed in transfected cells; host or cells: CHO (Chinese hamster ovary) cells
T2 sequence (P14416 whole entry): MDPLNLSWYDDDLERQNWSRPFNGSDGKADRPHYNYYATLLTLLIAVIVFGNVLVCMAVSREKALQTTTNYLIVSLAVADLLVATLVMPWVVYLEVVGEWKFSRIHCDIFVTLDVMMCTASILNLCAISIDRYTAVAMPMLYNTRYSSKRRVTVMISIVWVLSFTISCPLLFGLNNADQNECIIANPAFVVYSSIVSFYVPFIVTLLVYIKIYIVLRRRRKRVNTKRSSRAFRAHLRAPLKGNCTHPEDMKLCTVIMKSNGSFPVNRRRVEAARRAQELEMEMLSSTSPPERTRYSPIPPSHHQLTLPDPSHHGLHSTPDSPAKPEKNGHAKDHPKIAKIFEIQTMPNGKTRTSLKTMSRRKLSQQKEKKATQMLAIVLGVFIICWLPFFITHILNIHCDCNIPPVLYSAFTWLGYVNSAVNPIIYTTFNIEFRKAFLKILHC
Experimental: Affinity of the compounds of the present invention for the dopamine-D2 receptor, which is found in the wall of the gastric tract of mammals and inhibits gastric motility, was determined by measuring competitive inhibition against the binding to the receptor of a radio-labeled ligand which is known for its affinity for the receptor. In this regard, the experiment was performed according to the method described in [Heys G et al. Mol. Endocrinol. 6:920, 1992] and [Grandy D K et al. Proc Natl Acad Sci USA. 86:9762, 1989].
In tris-HCl buffer ([…], pH 7.4, 120 mM NaCl, 5 mM KCl, 2 mM CaCl2, 1 mM MgCl2) 150 μg of Chinese hamster ovary (CHO) cells transfected with a human dopamine D2, gene were incubated at 25° C. for 120 min with 0.16 nM of tritium Spiperone (^3[H] Spiperon [NEN, 250 μCi]) and 10 μM of the compound of interest. After completion of the incubation, the incubation mixture was filtered through Whatman GF/B filter (unifilter-96 Lot: 6005177, PerkinElmer) to separate ligand-bound receptors. […] Then, 10 mL of a scintillation cocktail (Lot: 03999, Fluka) was added and reacted for 16 hrs or longer to measure radiation activity using a beta-counter (Packcard) in order to calculate the quantity of tritium spiperone bound to the receptor. […] The experiment was independently carried out twice, and receptor affinity was calculated using the following Equation 1. […]

serotonin-1B receptor = molecular target: T3, serotonin-1B receptor (Rattus norvegicus, UniProt P28564); test: Assay for affinity for serotonin-1B receptor (125I cyanopindolol binding, rat cerebral cortex membranes); settings: 10 μM compound, mean of two experiments
T3 construct: cell membranes of the cerebral cortex excised from male Winstar rats; from tissue; host or cells: rat cerebral cortex membranes (male Wistar rats)
T3 sequence (P28564 whole entry): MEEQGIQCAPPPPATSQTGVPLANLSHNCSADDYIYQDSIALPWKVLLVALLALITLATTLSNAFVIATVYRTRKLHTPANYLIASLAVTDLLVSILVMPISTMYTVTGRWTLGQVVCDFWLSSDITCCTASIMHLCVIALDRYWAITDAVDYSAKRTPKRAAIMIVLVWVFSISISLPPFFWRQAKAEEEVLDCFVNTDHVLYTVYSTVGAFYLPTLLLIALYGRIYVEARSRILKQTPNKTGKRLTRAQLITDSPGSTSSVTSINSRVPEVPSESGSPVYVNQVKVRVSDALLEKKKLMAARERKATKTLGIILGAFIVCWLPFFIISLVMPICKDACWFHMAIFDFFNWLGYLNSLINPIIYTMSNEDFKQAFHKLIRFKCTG
Experimental: Compounds of the present invention were examined for affinity for the serotonin-1B receptor which can exert a relaxation effect on the stomach and relieve impaired gastric accommodation of functional dyspepsia patients in response to an agonist.
In a Tris-HCl buffer (50 mM Tris-HCl, pH 7.4, 120 mM NaCl, 5 mM KCl, 2 mM CaCl2, 1 mM MgCl2), 4 mg of cell membranes of the cerebral cortex excised from male Winstar rats, each weighing 175±25 g, was incubated at 37° C. for 1.5 hrs with […] of ^125[I] cyanopindolol (PerkinElmer, 100 μCi) and 10 μM of the compound of interest of the present invention per well. After completion of the incubation, the incubation mixture was filtered through Whatman GF/B filter (unifilter-96, Lot: 6005177, PerkinElmer) to separate ligand-bound receptors. These bound receptors were washed three times with 5 mL of a Tris-HCl buffer. Then, 10 mL of a scintillation cocktail (Lot: 03999, Fluka) was added, and reacted for 16 hrs or to measure a radiation activity using a beta-counter (Packcard) in order to calculate the quantity of ^125[I] cyanopindolol bound to the receptor.
Meanwhile, 10 μM of serotonin (H9523, Sigma) was incubated in the presence of […] of ^125[I] cyanopindolol to determine a nonspecific binding value. The experiment was independently carried out twice, and receptor affinity was calculated using the following Equation 3. […]

Affinity (%) (human 5-HT1A receptor): 41% | Affinity (%) [1]: 46% | Affinity (%) (serotonin-1B receptor): 92%
Structure (SMILES): CCOC(=O)CCC(=O)N1CCc2cc(OC)c(OC)c3c2[C@@H]1Cc1cc(OC)c(OC)cc1-3 [Example 1, (S)-4-oxo-4-(1,2,9,10-tetramethoxy-4,5,6a,7-tetrahydro-dibenzo[de,g]quinoline-6-yl)-butyric acid ethyl ester]
Gastric Emptying (%) (normal rat; dose 10 μg/kg oral, 45 min before semi-solid test meal, stomach excised 35 min after meal, control 24.3): 47.8% | increase of gastric emptying compared to the control (normal rat; normal rats, oral dose 10 μg/kg): roughly two-fold
